According to the NIST ThermoML archive (doi:10.1021/je700521t):

Assay: refractive index (Na D-line) (dimensionless); xn = mol fraction of the nth substance listed
Details: 101 kPa, Liquid, Standard Abbe refractometry

CCCCn1cc[n+](C)c1.[O-][Cl+3]([O-])([O-])[O-] [1-butyl-3-methylimidazolium perchlorate] + CCO
refractive index
Details	x2 = 0.1	x2 = 0.165	x2 = 0.291	x2 = 0.401	x2 = 0.479
283.15 K	1.475	1.4725	1.468	1.4625	1.459
288.15 K	1.4738	1.4715	1.4667	1.4612	1.4575
293.15 K	1.4725	1.47	1.4655	1.4595	1.4563
298.15 K	1.471	1.4687	1.464	1.458	1.455
303.15 K	1.4697	1.4673	1.4627	1.4568	1.4535
308.15 K	1.4685	1.466	1.4615	1.4555	–
313.15 K	1.467	1.4648	1.46	1.454	–
318.15 K	1.4655	1.4637	1.4587	–	–
323.15 K	1.4645	1.462	1.457	–	–
328.15 K	1.463	1.4608	1.456	–	–
333.15 K	1.4615	1.4595	1.4545	–	–
338.15 K	1.4603	1.458	1.4532	–	–
343.15 K	1.459	1.4565	1.4518	–	–

CCCCCCCC[n+]1ccn(C)c1.F[B-](F)(F)F [1-methyl-3-octylimidazolium tetrafluoroborate] + CCO
refractive index
Details	x2 = 0.081	x2 = 0.161	x2 = 0.315	x2 = 0.511	x2 = 0.612	x2 = 0.753
283.15 K	1.4335	1.4315	1.43	1.4265	1.4225	1.4132
288.15 K	1.4323	1.4305	1.4288	1.425	1.4212	1.4125
293.15 K	1.431	1.4292	1.4273	1.4237	1.42	1.411
298.15 K	1.4295	1.428	1.426	1.423	1.4185	1.4098
303.15 K	1.4284	1.427	1.4245	1.4208	1.4172	1.4085
308.15 K	1.4268	1.4255	1.423	1.4195	1.416	1.4072
313.15 K	1.4255	1.424	1.4219	1.418	1.4143	1.407
318.15 K	1.424	1.4225	1.4205	1.4168	1.413	1.4065
323.15 K	1.4225	1.421	1.419	1.415	1.4115	1.4055
328.15 K	1.4213	1.42	1.4178	1.4137	1.41	1.4045
333.15 K	1.4205	1.4188	1.416	1.4125	1.4085	1.404
338.15 K	1.419	1.4173	1.4145	1.4118	1.4078	1.4033
343.15 K	1.4175	1.416	1.4132	1.411	1.4065	1.402
